Earlier results as cited in patent US7482343B2, “Compounds, methods and compositions” (Cytokinetics, Inc., priority 2002, dated 2009).

Test system: A549 cells
Conditions: data provided by National Cancer Institute

SMILES	GI50
NC(=O)NO [hydroxyurea]	500 µM
CC(=O)O[C@H]1C(=O)[C@@]2(C)[C@H]([C@H](OC(=O)c3ccccc3)[C@]3(O)C[C@H](OC(=O)[C@H](O)[C@@H](NC(=O)c4ccccc4)c4ccccc4)C(C)=C1C3(C)C)[C@]1(OC(C)=O)CO[C@@H]1C[C@@H]2O [paclitaxel]	0.004 µM
COc1cccc2c1C(=O)c1c(O)c3c(c(O)c1C2=O)C[C@@](O)(C(=O)CO)C[C@@H]3O[C@H]1C[C@H](N)[C@H](O)[C@H](C)O1 [doxorubicin]	0.063 µM
O=c1[nH]cc(F)c(=O)[nH]1 [5-fluorouracil]	1 µM
